The subject of data set [1] is PC3 cells. Description: PC3 cell proliferation with Tet-inducible IBS or DKK3 constructs. Conditions: limited antibiotic induction of Tet-inducible construct. It is filed as cell-based. The text has this: The relationship between IBS and the Wnt/β-catenin signaling pathway was defined by cell proliferation, promoter-driven reporter assays, and cell migration analysis. Limited antibiotic induction of Tet-inducible IBS or DKK3 constructs was used to avoid the untoward effects of over-expression. […] (Veeck et al. 2012 Biochim Biophys Acta 1825, 18-28; Hsieh et al. 2004 Oncogene 23, 9183-9189; Abarzua et al 2005 Cancer Res 65, 9617-9622; Edamura et al. 2007 Cancer Gene Ther 14, 765-772.)

Data set [2] has as its target native, unphosphorylated β-catenin (UniProt P35222). The data set is described as follows: cell-based or functional assay.
The next data set concerns HEK293 cells. Description: Basal and Wnt stimulated proliferation of HEK293 cells. It is filed as cell-based. To be noted: HEK293, highest concentration tested. The text has this:
The impact of IBS on basal and Wnt stimulated cell proliferation was then examined in immortalized HEK293 cells (FIG. 9a). […] The more robust silencing by TAT-IBS is likely due to the universal delivery of this regulator to the cell monolayer.

A further data set concerns β-catenin. Description: Tcf-luciferase promoter reporter assay. The format is cell-based. To be noted: Wnt1 co-transfected cells, treated 24 h. On the procedure: Primary and downstream promoter-luciferase reporter assays were used to explore the interaction between IBS and β-catenin-driven gene expression. Cells were co-transfected with Wntl and promoter-driven luciferase constructs and treated with TAT-IBS for 24 h. […] The ability of IBS to modulate two downstream β-catenin modulated pathways that reduce cell adhesion (ECad) and promote cell cycle progression (E2F) was also examined. […] Motile MDA-MB-231 cells were used to examine the effect of IBS on β-catenin dependent cell migration. IBS slowed malignant cell migration by >60% (FIG. 9d).
A general note: A reporter such as luciferase makes a cellular process visible.

In a further data set the test system is Elf3. The data set is described as follows: Elf3-luciferase reporter assay. It is filed as cell-based. Conditions: suppressed by Wnt-1 stimulation. The text has this:
(§1) FIG. 23. TAT-IBS antagonizes primary and secondary β-catenin and NF-κB-dependent gene expression. A) TAT-IBS blocks an NF-κB (p65)-responsive promoter driving luciferase reporter in HEK293 cells that was stimulated by Wnt-1 transfection (shaded bars). […] C) (Data previously disclosed in UMMC 12-40PR2). TAT-IBS restores E-Cadherin (CDH1)-promoter activity in Wnt-1 stimulated cells (middle chart). TopFlash and E2F-luciferase reporters are dependent on β-TrCP substrates, β-catenin and E2F, respectively (top and bottom charts). TAT-IBS blocks transcriptional activation by Wnt-1 stimulation of both reporters. DKK3b fused to an N-terminal cell penetrating peptide, a protein construct we refer to as TAT-IBS (a.k.a. cpIBS), regulates the activity of promoter elements that depend upon the nuclear translocation of β-TrCP target substrates (FIG. 23) as determined by promoter-luciferase reporter assays. Wnt-1 stimulates transcription regulated by NF-κB (FIG. 23A), β-catenin, and E2F (FIG. 23 C) transcription factor proteins. TAT-IBS treatment blocks this Wnt-1-induced stimulation. In contrast, Wnt-1 down-regulates transcription from promoter elements of two biomarkers of epithelial cellular differentiation, E-cadherin (FIG. 23C) and Elf3 (FIG. 23B). TAT-IBS treatment blocks Wnt-1-induced repression of these two epithelial gene transcripts.

Data set [3] concerns human ovarian, pancreatic, and colon cancers. The data set is described as follows: Tumor growth in tumor bearing PDX-mice. It is filed as in vivo, mouse. The text has this: (§2) Delivery of this intracellular tumor suppressor to the cytoplasm of the cancer cell is essential to achieve the cancer cell growth arrest and apoptosis. First attempts were made by fusing a variant of the cell penetrating peptide-TAT.

In data set [4] the test system is PC3 cells. The data set is described as follows: PC3 cell proliferation after TAT-fusion protein/peptide. It is filed as cell-based. The method, then: (§3) Over-expression of DKK3 in cancer cells initiates c-Jun Kinase (JNK) mediated apoptosis. (Abarzua et al. 2005 Cancer Res 65, 9617-9622; Kawasaki et al. 2009 Cancer Gene Ther 16, 65-72.) IBS and the JNK inhibitor, TAT-JBD were introduced into PC3 cells as TAT-fusion protein and peptide, respectively, and cell proliferation was measured after 3 days. […] Pro-apoptotic levels of cleaved Caspase 3 increased in TAT-IBS treated cells and this increase was blocked by inhibition of JNK activity (FIG. 8d). […] (Veeck et al. 2012 Biochim Biophys Acta 1825, 18-28; Abarzua et al. 2005 Cancer Res 65, 9617-9622.)

The test system of a further data set is Cleaved Caspase 3. Description: Cleaved Caspase 3 in PC3 cells. It is filed as cell-based. The method, then:
as §3

For data set [5] the following is noted: in vivo.
Source text: as §2

A further data set has as its system NF-κB (p65). The data set is described as follows: NF-κB (p65)-responsive promoter luciferase reporter in HEK293 cells. Conditions: HEK293 cells stimulated by Wnt-1 transfection. It is filed as cell-based.
Source text: as §1

Sequence of UniProt P35222 (P35222 2-781 limits assumed): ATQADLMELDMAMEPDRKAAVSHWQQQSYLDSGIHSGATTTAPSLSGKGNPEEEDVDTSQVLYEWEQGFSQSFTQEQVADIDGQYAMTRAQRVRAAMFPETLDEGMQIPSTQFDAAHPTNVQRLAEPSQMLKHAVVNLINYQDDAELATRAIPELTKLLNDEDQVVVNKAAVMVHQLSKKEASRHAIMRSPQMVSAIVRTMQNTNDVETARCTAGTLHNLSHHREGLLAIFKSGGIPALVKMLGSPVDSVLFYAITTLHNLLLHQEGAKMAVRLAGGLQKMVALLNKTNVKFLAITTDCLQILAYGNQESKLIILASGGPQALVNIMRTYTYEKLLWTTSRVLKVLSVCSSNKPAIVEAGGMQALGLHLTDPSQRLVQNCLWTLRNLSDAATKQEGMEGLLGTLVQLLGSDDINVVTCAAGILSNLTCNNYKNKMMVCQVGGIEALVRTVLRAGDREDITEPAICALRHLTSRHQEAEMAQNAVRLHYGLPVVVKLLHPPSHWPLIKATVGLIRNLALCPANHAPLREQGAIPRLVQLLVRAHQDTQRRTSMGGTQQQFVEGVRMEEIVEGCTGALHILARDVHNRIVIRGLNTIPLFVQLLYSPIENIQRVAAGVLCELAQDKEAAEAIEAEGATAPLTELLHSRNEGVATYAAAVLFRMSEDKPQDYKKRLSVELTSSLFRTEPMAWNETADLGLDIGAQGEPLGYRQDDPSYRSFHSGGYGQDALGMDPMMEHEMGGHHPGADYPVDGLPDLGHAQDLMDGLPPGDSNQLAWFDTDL

On to “DKK3: secreted glycoprotein product of the DKK3 locus”, for which the PC3 cell proliferation entry with PC3 cells [1] is reported as “did not alter the rate of PC3 cell proliferation”.

In [2], “TAT-IBS (DKK3b fused to an N-terminal cell penetrating peptide) (from UniProt Q9UBP4 72-350)” displayed a nuclear β-catenin level in LiCl-stimulated SOAS-2 and HeLa cells (cell fractionation) (fraction of untreated controls) of 0.33; a total cell content and distribution of β-catenin (nuclear, cytosolic and microfilament fractions) of 3 fold.

Turning to “TAT-IBS: DKK3b fused to an N-terminal cell penetrating peptide; bacterially expressed, unfolded fusion protein”, in the data set with HEK293 cells, the Wnt-stimulated cell proliferation entry is “completely eliminated” and the basal cell proliferation result is “without altering basal cell proliferation”. In the data set with β-catenin, the “Wnt stimulated Tcf-luciferase expression” value is listed as “completely arrested”. For the same substance, the “transcriptional activity of Elf3-luciferase” value with Elf3 is on record as “restores transcriptional activity”. Besides, the tumor necrosis result in data set [3] (pancreatic, and colon cancers in PDX-mice) is reported as “led to tumor necrosis”. Moreover, the “growth of human cancers in PDX-mice” value in [3] (pancreatic, and colon cancers, bacterially expressed, unfolded protein) is reported as “arrested growth”. Further, the “loss of the initial cell population” value with PC3 cells [4] (PC3 cells, after 3 days) is recorded as above 75%. Moreover, the PC3 cell proliferation entry with PC3 cells [4] (TAT-fusion protein, measured after 3 days) was “arrested proliferation”. Moreover, the “pro-apoptotic levels of cleaved Caspase 3” value in the data set with Cleaved Caspase 3 is reported as “increased”. Also, the “effects on biology in the mouse” value in data set [5] is “no effects on any biology in the mouse”. For the same substance, the “NF-κB (p65)-responsive promoter luciferase reporter” value in the data set on NF-κB (p65) was “blocks”.
